Data set [1] concerns DNA. Briefly: Inhibition of RpoN-mediated GlnAp2 transcription in Escherichia coli XL-1 Blue expressing GFP assessed as decrease in GFP levels at 10 uM incubated for 4 hrs under minimal nitrogen media by fluorescence based assay relative to control. It is filed as nucleic-acid assay.
Data set [2] concerns the target dsDNA. Briefly: Binding affinity to FITC-labelled dsDNA (unknown origin) assessed as dissociation constant incubated for 10 mins by fluorescence polarization assay. It is filed as nucleic-acid assay. On the technique in general: Polarisation of emitted light reports the rotation of a fluorescent probe.
A short description of data set [3]: Hemolytic activity in human RBC at 100 uM measured after 1 hrs relative to control. The format is toxicity, cell-based, Erythrocyte. The following applies: red blood cells (erythrocytes), read-out: Activity.
The nature of data set [4]: Toxicity in Galleria mellonella larvae assessed as survivability at 10 mg/kg administered intra-hemocoelicly and measured after 24 hrs. Particulars: in vivo, other. It is filed as organism-based.
In data set [5] the test system is Pseudomonas aeruginosa. Briefly: Antibacterial activity against Pseudomonas aeruginosa infected in Galleria mellonella larvae assessed as enhancement of survival rate at 10 mg/kg administered intra-hemocoelicly and measured after 24 hrs relative to control. It is filed as functional.
Data set [6] relates to Pseudomonas aeruginosa. Briefly: Antibacterial activity against Pseudomonas aeruginosa assessed as inhibition of cell growth upto 32 ug/ml incubated overnight by microtiter broth dilution assay. The format is functional. Particulars: dose <= 32 µg/ml.
Data set [7] deals with Pseudomonas aeruginosa. Kind of data set: Antibacterial activity against Pseudomonas aeruginosa infected in Galleria mellonella larvae assessed as enhancement of survival rate at 10 mg/kg administered intra-hemocoelicly and measured after 36 hrs relative to control. The format is functional.

Activity calls are given as the source filed them. The calls are words filed in the database; no cut-off is given here. Numbered stars: 1 amine (or outer) side, 2 acyl side, 3 side chain; on linkers, the order of the positions; unused ones are H or OH. Bridge positions count the residues as written; N and C are the ends. Square brackets hold non-standard residues; d marks the D form. Peptide text beside a SMILES is read from it. X1 = CC(C)[C@@H](CN[*:1])C(=O)[*:2]; S5 = C=CCCC[C@](C)(N)C(=O)O; Nle = CCCC[C@H](N)C(=O)O; Orn = NCCC[C@H](N)C(=O)O; βAla = NCCC(=O)O Where only a bound is given, the exact number is not on record here.

One may read the Kd as a measure of binding affinity in units of concentration. A word on the MIC: it is the least concentration at which growth counts as inhibited.

Regarding `CCCC[C@H](NC(=O)[C@H](CCC(=O)O)NC(=O)[C@H](CCCNC(=N)N)NC(=O)[C@]1(C)CCC/C=C\CCC[C@](C)(NC(=O)[C@H](CCCNC(=N)N)NC(=O)[C@H](CCCNC(=N)N)NC(=O)[C@H](C)NC(=O)[C@@H](NC(=O)[C@H](CCCCN)NC(=O)[C@H](Cc2ccccc2)NC(=O)CCNC(C)=O)C(C)C)C(=O)N[C@@H](C(C)C)C(=O)N[C@@H](C)C(=O)N[C@@H](CCCCN)C(=O)N1)C(=O)N[C@@H](CC(C)C)C(N)=O` (Ac-[βAla]FKVARR[S5]VAK[S5]RE[Nle]L-NH2; staple (Z) 8-12), the inhibition result in data set [1] was “Active”. Moreover, the dissociation constant Kd in data set [2] was 366 nM. The hemolysis at 1 h, 100 µM in data set [3] is 10.7%. Also, the Activity result in data set [4] is reported as “Non-Toxic”. Besides, in data set [5], the outcome was Active. The minimum inhibitory concentration (MIC) in data set [6] is above 32 µg/mL.
As for `CCCC[C@H](NC(=O)[C@H](CCC(=O)O)NC(=O)[C@H](CCCNC(=N)N)NC(=O)[C@H](Cc1ccc(O)cc1)NC(=O)[C@H](CCCCN)NC(=O)[C@H](C)NC(=O)[C@]1(C)CCC/C=C\CCC[C@](C)(NC(=O)[C@H](Cc2ccccc2)NC(=O)[C@H](CCCCN)NC(=O)[C@H](Cc2ccccc2)NC(=O)CCNC(C)=O)C(=O)N[C@@H](CCCNC(=N)N)C(=O)N[C@@H](CCCNC(=N)N)C(=O)N[C@@H]([C@@H](C)O)C(=O)N1)C(=O)N[C@@H](CC(C)C)C(N)=O` (Ac-[βAla]FKF[S5]RRT[S5]AKYRE[Nle]L-NH2; staple (Z) 5-9), the inhibition entry in data set [1] was “Active”.
The same measure, in the same setting: the value for `CCCC[C@H](NC(=O)[C@H](CCC(=O)O)NC(=O)[C@H](CCCNC(=N)N)NC(=O)[C@H](Cc1ccc(O)cc1)NC(=O)[C@H](CCCNC(=N)N)NC(=O)[C@H](C)NC(=O)[C@]1(C)CCC/C=C\CCC[C@](C)(NC(=O)[C@@H](NC(=O)[C@H](CCCCN)NC(=O)[C@H](Cc2ccccc2)NC(=O)CCNC(C)=O)C(C)C)C(=O)N[C@@H](CCCNC(=N)N)C(=O)N[C@@H](CCCNC(=N)N)C(=O)N[C@@H]([C@@H](C)O)C(=O)N1)C(=O)N[C@@H](CC(C)C)C(N)=O` (Ac-[βAla]FKV[S5]RRT[S5]ARYRE[Nle]L-NH2; staple (Z) 5-9) was “Active”.
On the same count and under the same terms, under `CCCC[C@H](NC(=O)[C@H](CCC(=O)O)NC(=O)[C@H](CCCNC(=N)N)NC(=O)[C@@H](Cc1ccc(O)cc1)NC(=O)[C@H](CCCCN)NC(=O)[C@H](C)NC(=O)[C@]1(C)CCC/C=C\CCC[C@](C)(NC(=O)[C@@H](NC(=O)[C@H](CCCCN)NC(=O)CCNC(C)=O)C(C)C)C(=O)N[C@@H](CCCNC(=N)N)C(=O)N[C@@H](CCCNC(=N)N)C(=O)N[C@@H]([C@@H](C)O)C(=O)N1)C(=O)N[C@@H](CC(C)C)C(N)=O` stands “Active”; under `CCCC[C@H](NC(=O)[C@H](CCC(=O)O)NC(=O)[C@H](CCCNC(=N)N)NC(=O)[C@H](Cc1ccc(O)cc1)NC(=O)[C@H](CCCCN)NC(=O)[C@H](C)NC(=O)[C@]1(C)CCC/C=C\CCC[C@](C)(NC(=O)[C@@H](NC(=O)[C@H](CCCN)NC(=O)[C@H](Cc2ccccc2)NC(=O)CCNC(C)=O)C(C)C)C(=O)N[C@@H](CCCNC(=N)N)C(=O)N[C@@H](CCCNC(=N)N)C(=O)N[C@@H]([C@@H](C)O)C(=O)N1)C(=O)N[C@@H](CC(C)C)C(N)=O` (Ac-[βAla]F[Orn]V[S5]RRT[S5]AKYRE[Nle]L-NH2; staple (Z) 5-9), “Active”; under `CCCC[C@H](NC(=O)[C@H](CCC(=O)O)NC(=O)[C@H](CCCNC(=N)N)NC(=O)[C@H](Cc1ccc(O)cc1)NC(=O)[C@H](CCCCN)NC(=O)[C@@H](NC(=O)[C@]1(C)CCC/C=C\CCC[C@](C)(NC(=O)[C@H](C)NC(=O)[C@H](CCCCN)NC(=O)[C@H](Cc2ccccc2)NC(=O)CCNC(C)=O)C(=O)N[C@@H](CCCNC(=N)N)C(=O)N[C@@H](CCCNC(=N)N)C(=O)N[C@@H]([C@@H](C)O)C(=O)N1)C(C)C)C(=O)N[C@@H](CC(C)C)C(N)=O` (Ac-[βAla]FKA[S5]RRT[S5]VKYRE[Nle]L-NH2; staple (Z) 5-9), “Active”.
As for `CCCC[C@H](NC(=O)[C@H](CCC(=O)O)NC(=O)[C@H](CCCNC(=N)N)NC(=O)[C@H](Cc1ccc(O)cc1)NC(=O)[C@H](CCCCN)NC(=O)[C@H](C)NC(=O)[C@]1(C)CCC/C=C\CCC[C@](C)(NC(=O)[C@@H](NC(=O)[C@H](CCCCN)NC(=O)[C@H](Cc2ccccc2)NC(=O)CCNC(C)=O)C(C)C)C(=O)N[C@@H](CCCNC(=N)N)C(=O)N[C@@H](CCCCN)C(=O)N[C@@H]([C@@H](C)O)C(=O)N1)C(=O)N[C@@H](CC(C)C)C(N)=O` (Ac-[βAla]FKV[S5]RKT[S5]AKYRE[Nle]L-NH2; staple (Z) 5-9), the inhibition result in data set [1] is “Active”. Besides, the Kd in data set [2] is 947 nM. In addition, in data set [3], the hemolysis at 1 h, 100 µM amounted to 3.3%. Further, the MIC in data set [6] is above 32 µg/mL.
On to `CCCC[C@H](NC(=O)[C@H](CCC(=O)O)NC(=O)[C@H](CCCNC(=N)N)NC(=O)[C@H](Cc1ccc(O)cc1)NC(=O)[C@H](CCCCN)NC(=O)[C@H](C)NC(=O)[C@]1(C)CCC/C=C\CCC[C@](C)(NC(=O)[C@H](C)NC(=O)[C@H](CCCCN)NC(=O)[C@H](Cc2ccccc2)NC(=O)CCNC(C)=O)C(=O)N[C@@H](CCCNC(=N)N)C(=O)N[C@@H](CCCNC(=N)N)C(=O)N[C@@H]([C@@H](C)O)C(=O)N1)C(=O)N[C@@H](CC(C)C)C(N)=O` (Ac-[βAla]FKA[S5]RRT[S5]AKYRE[Nle]L-NH2; staple (Z) 5-9), for which the inhibition entry in data set [1] was “Active”.
`CCCC[C@H](NC(=O)[C@H](CCC(=O)O)NC(=O)[C@H](CCCNC(=N)N)NC(=O)[C@H](Cc1ccc(O)cc1)NC(=O)[C@H](CCCCN)NC(=O)CNC(=O)[C@]1(C)CCC/C=C\CCC[C@](C)(NC(=O)[C@@H](NC(=O)[C@H](CCCCN)NC(=O)[C@H](Cc2ccccc2)NC(=O)CCNC(C)=O)C(C)C)C(=O)N[C@@H](CCCNC(=N)N)C(=O)N[C@@H](CCCNC(=N)N)C(=O)N[C@@H]([C@@H](C)O)C(=O)N1)C(=O)N[C@@H](CC(C)C)C(N)=O` (Ac-[βAla]FKV[S5]RRT[S5]GKYRE[Nle]L-NH2; staple (Z) 5-9): in data set [1], the inhibition entry is “Active”. The Kd in data set [2] is 376 nM. For the same molecule, in data set [3], the hemolysis at 1 h, 100 µM was found to be 0.53%. The Activity result in data set [4] is recorded as “Non-Toxic”; in data set [5] it was 80%; in data set [7], 10%. For the same molecule, the MIC in data set [6] was above 32 µg/mL.
With `CCCC[C@H](NC(=O)[C@H](CCC(=O)O)NC(=O)[C@H](CCCNC(=N)N)NC(=O)[C@H](Cc1ccc(O)cc1)NC(=O)[C@H](CCCCN)NC(=O)[C@H](C)NC(=O)[C@]1(C)CCC/C=C\CCC[C@](C)(NC(=O)[C@@H](NC(=O)[C@H](CCCCN)NC(=O)[C@H](Cc2ccccc2)NC(=O)CCNC(C)=O)C(C)C)C(=O)N[C@@H](CCCCN)C(=O)N[C@@H](CCCNC(=N)N)C(=O)N[C@@H]([C@@H](C)O)C(=O)N1)C(=O)N[C@@H](CC(C)C)C(N)=O` (Ac-[βAla]FKV[S5]KRT[S5]AKYRE[Nle]L-NH2; staple (Z) 5-9), the inhibition entry in data set [1] was “Active”. In data set [2], the Kd was found to be 1680 nM. For the same molecule, in data set [3], the hemolysis at 1 h, 100 µM was found to be 3.3%. The MIC in data set [6] was above 32 µg/mL.
Regarding `CCCC[C@H](NC(=O)[C@H](CCC(=O)O)NC(=O)[C@H](CCCNC(=N)N)NC(=O)[C@H](Cc1ccc(O)cc1)NC(=O)[C@H](CCCCN)NC(=O)[C@H](C)NC(=O)[C@]1(C)CCC/C=C\CCC[C@](C)(NC(=O)[C@H](CNC(=O)[C@H](CCCCN)NC(=O)[C@H](Cc2ccccc2)NC(=O)CCNC(C)=O)C(C)C)C(=O)N[C@@H](CCCNC(=N)N)C(=O)N[C@@H](CCCNC(=N)N)C(=O)N[C@@H]([C@@H](C)O)C(=O)N1)C(N)=O` (Ac-[βAla]FK[X1][S5]RRT[S5]AKYRE[Nle]-NH2; staple (Z) 5-9), in data set [1], the inhibition result is “Active”. Also, the Kd in data set [2] was determined as 385 nM. The hemolysis at 1 h, 100 µM in data set [3] is 35%. In addition, the Activity entry in data set [4] was “Non-Toxic”. The result in data set [5] was Active. Besides, in data set [6], the MIC is above 32 µg/mL.
For the molecule `CCCC[C@H](NC(=O)[C@H](CCC(=O)O)NC(=O)[C@H](CCCNC(=N)N)NC(=O)[C@H](Cc1ccc(O)cc1)NC(=O)[C@H](CCCCN)NC(=O)[C@H](C)NC(=O)[C@@H](NC(=O)[C@@H](NC(=O)[C@H](CCCNC(=N)N)NC(=O)[C@H](CCCNC(=N)N)NC(=O)[C@H](C)NC(=O)[C@@H](NC(=O)[C@H](CCCCN)NC(=O)[C@H](Cc1ccccc1)NC(=O)CCNC(C)=O)C(C)C)[C@@H](C)O)C(C)C)C(=O)N[C@@H](CC(C)C)C(N)=O` (Ac-[βAla]FKVARRTVAKYRE[Nle]L-NH2), the hemolysis at 1 h, 100 µM in data set [3] amounted to 0.12%.
With `CCCC[C@H](NC(=O)[C@H](CCC(=O)O)NC(=O)[C@H](CCCNC(=N)N)NC(=O)[C@H](Cc1ccc(O)cc1)NC(=O)[C@H](CCCCN)NC(=O)[C@H](C)NC(=O)[C@]1(C)CCC/C=C\CCC[C@](C)(NC(=O)[C@@H](NC(=O)[C@H](CCCNC(=N)N)NC(=O)[C@H](Cc2ccccc2)NC(=O)CCNC(C)=O)C(C)C)C(=O)N[C@@H](CCCNC(=N)N)C(=O)N[C@@H](CCCNC(=N)N)C(=O)N[C@@H]([C@@H](C)O)C(=O)N1)C(=O)N[C@@H](CC(C)C)C(N)=O` (Ac-[βAla]FRV[S5]RRT[S5]AKYRE[Nle]L-NH2; staple (Z) 5-9), in data set [1], the inhibition result was “Active”. Further, in data set [2], the Kd worked out at 346 nM. Further, the hemolysis at 1 h, 100 µM in data set [3] is 1.5%. Further, the Activity result in data set [4] was “Non-Toxic”; in data set [5], 80%; in data set [7] it was 20%. The MIC in data set [6] is above 32 µg/mL.

For the origin of these results see ChEMBL document CHEMBL5107971, “RpoN-Based stapled peptides with improved DNA binding suppress Pseudomonas aeruginosa virulence” (RSC Med Chem, 2022).
